Test results published in publication PMC10744269, “Frentizole, a Nontoxic Immunosuppressive Drug, and Its Analogs Display Antitumor Activity via Tubulin Inhibition” (International Journal of Molecular Sciences, 2023).

How the values were obtained:
[1] = tested on: U87 MG (human glioblastoma); experiment: MTT antiproliferative assay, U-87 MG; assay type: cell-based; settings: 72 h after drug treatment, threshold 10 μM
Procedure: (§1) The cell proliferation inhibitory activity of frentizole and the synthesized analogs 2–10 against representative human cancer cell lines was assayed using the MTT method (Table 1). […] For those compounds inhibiting cell proliferation by more than 40% with respect to the untreated controls at the threshold concentration, the IC50 values were calculated by measuring the proliferation inhibition in a range of concentrations from 100 to 0.001 μM and adjusting the resulting curves to sigmoidal dose–response curves. The selected cell lines were HeLa (cervix epithelioid carcinoma cells), one of the most frequent kinds of cancer, with good sensitivity against antimitotic agents, and the glioblastoma cell lines U87MG and A172. To study the selectivity of the compounds toward cancer cells versus nontumor cells, the compounds were also evaluated against the nontumorigenic cell line HEK-293 (human embryonic kidney cells) and the murine macrophage cell line J774. Sulfonamide ABT-751, as a representative of the colchicine-site ligands, and the first-line drug for the treatment of glioblastoma multiforme temozolomide (TMZ) were used as reference compounds.
(§2) The cell lines were from ATTC (Manassas, VA, USA). HeLa (human cervix epithelioid carcinoma), U87 MG (human glioblastoma), A172 (human glioblastoma), and HEK-293 (human embryonic kidney) were grown in Dulbecco’s modified Eagle’s medium (DMEM, Gibco, Waltham, MA, USA), supplemented with 10% (v/v) heat-inactivated fetal bovine serum (HIFBS, Sigma-Aldrich, St. Louis, MO, USA), 2 mM L-glutamine, 100 μg/mL streptomycin, and 100 units/mL penicillin (Gibco, Waltham, MA, USA) at 37 °C in humidified 95% air and 5% CO2. The cells were periodically tested for Mycoplasma infection using MycoAlert kit (Lonza, Norwest, Australia), and only mycoplasma-free cells were employed in the experiments.
(§3) The effect of the compounds on the proliferation of human tumor cell lines was determined as previously described using the MTT reagent 3-[4,5-dimethylthiazol-2-yl]-2,5-diphenyltetrazolium bromide, MTT Thiazolyl Blue Tetrazolium Bromide, Sigma-Aldrich, St. Louis, MO, USA) dissolved in PBS at 5 mg/mL, according to the manufacturer’s instructions. The cells were incubated in 96-well plates (100 μL/well), in complete DMEM or RPMI 1640 medium (see above), at 37 °C and 5% CO2 atmosphere for 24 h to allow for cell attachment to the plate at the following concentrations: 30,000 cells/mL (U87MG, A172, J774, and HEK-293 cells) or 15,000 cells/mL (HeLa cells). Then, every compound was added (10 μL/well) to a final concentration of 10 μM. Untreated cells were used as negative controls. The antiproliferative activity of the compounds was measured 72 h after drug exposure using the MTT assay. The IC50 value (the drug concentration required to inhibit 50% of the cell growth in respect the untreated control) was determined for those compounds showing antiproliferative effects in the initial screening at 10 μM. For this purpose, the compounds were used at different concentrations ranging from 10^−10 to […]. Measurements were performed in triplicate and each experiment was repeated three times. The IC50 values were determined using Origin software (OriginLab, Washington, DC, USA).

[2] = tested on: A172 (human glioblastoma); experiment: MTT antiproliferative assay, A-172; assay type: cell-based; settings: 72 h after drug treatment, threshold 10 μM
Procedure: as §1, §2, §3

[3] = tested on: HeLa (cervix epithelioid carcinoma cells); experiment: MTT antiproliferative assay, HeLa; assay type: cell-based, human; settings: Homo sapiens, HeLa, 72 h after drug treatment, threshold 10 μM
Procedure: as §1, §2, §3

[4] = tested on: murine macrophage cell line J774; experiment: MTT antiproliferative assay, J774; assay type: cell-based; settings: Mus musculus, 72 h after drug treatment, threshold 10 μM, read-out: IC50 J-774
Procedure: as §1, §3

[5] = tested on: nontumorigenic cell line HEK-293 (human embryonic kidney cells); experiment: MTT antiproliferative assay, HEK-293; assay type: cell-based; settings: HEK293, 72 h after drug treatment, threshold 10 μM
Procedure: as §1, §2, §3

Row | SMILES | IC50 [1] | melting point | IC50 [2] | IC50 [3] | IC50 [4] | IC50 [5]
1 | Cc1cc2nc(NC(=O)Nc3ccccc3)sc2cc1C [Compound 6c, 1-(5,6-Dimethylbenzo[d]thiazol-2-yl)-3-phenylurea] | > 10 µM | > 290 °C | > 10 µM | > 10 µM | 0.27 µM | > 10 µM
2 | CCOC(=O)Nc1nc2ccc(C)cc2s1 [Compound 8a, Ethyl (6-methylbenzo[d]thiazol-2-yl)carbamate] | > 10 µM | 252.8 to 254 °C | > 10 µM | > 10 µM | 0.26 µM | > 10 µM
3 | Cc1ccc2nc(NC(=O)c3ccccc3)sc2c1 [Compound 3a, N-(6-methylbenzo[d]thiazol-2-yl)benzamide] | > 10 µM | 222 to 224 °C | > 10 µM | > 10 µM | > 10 µM | > 10 µM
4 | Cc1cc2nc(N(C)C(=O)Nc3ccccc3)sc2cc1C [Compound 6ca, 1-(5,6-Dimethylbenzo[d]thiazol-2-yl)-1-methyl-3-phenylurea] | > 10 µM | 179 °C | > 10 µM | > 10 µM | > 10 µM | > 10 µM
5 | CCOC(=O)Nc1nc2c(Br)cc(C)cc2s1 [Compound 8b, Ethyl (4-bromo-6-methylbenzo[d]thiazol-2-yl)carbamate] | > 10 µM | 177 to 178 °C | > 10 µM | > 10 µM | > 10 µM | > 10 µM
6 | Cc1cc2nc(N(C)C(=O)c3ccccc3)sc2cc1C [Compound 3ca, N-(5,6-dimethylbenzo[d]thiazol-2-yl)-N-methylbenzamide] | > 10 µM | 231 °C | > 10 µM | > 10 µM | > 10 µM | > 10 µM
